# What was measured:
# NASH mice [1] = assay: Liver TG content in NASH mice; format: in vivo, C57BL/6J mice; details: mean±SD, Vehicle 58.8±26.9, no significant difference
# Description: Liver total lipid-extracts were obtained from right lobes by Folch's method (Folch J. et al, J. Biol. Chem. 1957; 226 (1): 497). The livers were homogenized in chloroform-methanol (2:1, v/v) and incubated overnight at room temperature. After washing with chloroform-methanol-water (8:4:3, v/v/v), the extracts were evaporated to dryness, and dissolved in isopropanol. Liver TG levels were measured by Triglyceride E-test (Wako Pure Chemical Industries). Extracts were diluted 2- to 4-fold in isopropanol when the TG contents exceed the limit of detection.
# [2] = Body weight and general condition of NASH mice; details: for Mean body weight at sacrifice / Mean body weight during the treatment period: NASH mice; for Mean body weight at sacrifice: mean±SD, Vehicle 22.9±2.9, no significant difference; for Mean body weight during the treatment period: versus vehicle group
# Description: (§1) The viability, clinical signs and behavior were monitored daily. Body weight was recorded daily before drug administration. […] The animals were sacrificed by exsanguination through direct cardiac puncture under ether anesthesia (Wako Pure Chemical Industries).
# NASH mice [3] = assay: Whole blood glucose in NASH mice; format: in vivo, C57BL/6J mice; details: mean±SD
# Description: (§2) Non-fasting blood glucose was measured in whole blood using Life Check (EIDIA, Japan). For serum biochemistry, blood was collected in polypropylene tubes without anticoagulant and kept at room temperature for 30 minutes, followed by at 4° C. for 1 hour. The blood samples were then centrifuged at 1,000×g for 15 minutes at 4° C. The supernatant was collected and stored at −80° C. until use. Serum ALT and TG levels were measured by FUJI DRI-CHEM 7000 (Fujifilm, Japan).
# NASH mice [4] = assay: Serum TG in NASH mice; format: in vivo, C57BL/6J mice; details: mean±SD
# Description: as §2
# NASH mice [5] = assay: Liver weight and liver-to-body weight ratio in NASH mice; format: in vivo, C57BL/6J mice; details: mean±SD; for Liver-to-body weight ratio: Vehicle 8.1±1.1, no significant difference; for Mean liver weight: Vehicle 1870±418, no significant difference
# Description: as §1
# Collagen Type 3 = assay: Quantitative RT-PCR of liver, Collagen Type 3 mRNA, NASH mice; format: in vivo, C57BL/6J mice; details: 13 weeks of age, mean ± SD
# Description: (§3) Total RNA was extracted from liver samples using RNAiso (Takara Bio, Japan) according to the manufacturer's instructions. One μg of RNA was reverse-transcribed using a reaction mixture containing 4.4 mM MgCl2 (Roche, Switzerland), 40 U RNase inhibitor (Toyobo, Japan), 0.5 mM dNTP (Promega, USA), 6.28 μM random hexamer (Promega), 5× first strand buffer (Promega), 10 mM dithiothreitol (Invitrogen, USA) and 200 U MMLV-RT (Invitrogen) in a final volume of 20 μL. The reaction was carried out for 1 hour at 37° C., followed by 5 minutes at 99° C. Real-time PCR was performed using real-time PCR DICE and SYBR premix Taq (Takara Bio). To calculate the relative mRNA expression level, the expression of each gene was normalized to that of reference gene 36B4 (gene symbol: Rplp0). Information of PCR-primer sets and the plate layout was described in Table 1.
# TIMP-1 = assay: Quantitative RT-PCR of liver, TIMP-1 mRNA, NASH mice; format: in vivo, C57BL/6J mice; details: 13 weeks of age, mean ± SD, n = 8, Vehicle 7.74 ± 4.15, no significant difference
# Description: as §3
# NASH mice [6] = assay: Serum ALT in NASH mice; format: in vivo, C57BL/6J mice; details: mean±SD, Vehicle 58±29, no significant difference
# Description: as §2
# NASH mice [7] = assay: Sirius red staining, fibrosis area in liver of NASH mice; format: in vivo, C57BL/6J mice; details: for Sirius red-positive area (fibrosis area): NASH mice, 13 weeks of age, mean ± SD, n = 8, Vehicle 1.02 ± 0.33
# Description: C57BL/6J mice (15-day pregnant female) were obtained from Charles River Laboratories Japan (Kanagawa, Japan). All animals used in this study were housed and cared for in accordance with the Japanese Pharmacological Society Guidelines for Animal Use. The animals were maintained in a SPF facility under controlled conditions of temperature (23±2° C.), humidity (45±10%), lighting (12-hour artificial light and dark cycles; light from 8:00 to 20:00) and air exchange. A high pressure (20±4 Pa) was maintained in the experimental room to prevent contamination of the facility. The animals were housed in polycarbonate cages KN-600 (Natsume Seisakusho, Japan) with a maximum of 4 mice per cage. Sterilized PULMASμ (Material Research Center, Japan) was used for bedding and replaced once a week. Sterilized solid HFD was provided ad libitum, being placed in the metal lid on top of the cage. Pure water was provided ad libitum from a water bottle equipped with a rubber stopper and a sipper tube. Water bottles were replaced once a week, cleaned and sterilized in autoclave and reused. Mice were identified by numbers engraved on earrings. Each cage was labeled with a specific identification code.
# NASH mice [8] = assay: HE staining and NAFLD Activity score in NASH mice; details: for NAFLD Activity score (NAS): mean±SD, Vehicle 5.9±1.0, tended to decrease
# Description: NASH was induced in 40 male mice by a single subcutaneous injection of 200 μg streptozotocin (Sigma-Aldrich, USA) 2 days after birth and feeding with high fat diet (HFD, 57 kcal % fat, cat# HFD32, CLEA Japan, Japan) after 4 weeks of age. The mice were randomized into 5 groups of 8 mice at 9 weeks of age. Eight male littermates, fed with normal diet (cat# CE-2, CLEA Japan) without streptozotocin treatment, were used for the Normal group.
# The test substance solution was filled in the osmotic pumps at concentrations determined based on the individual body weight at the start of treatment (day 0). Telmisartan was administered by oral route in a volume of 10 mL/kg body weight.
# Telmisartan was administered once daily at a dose of 10 mg/kg body weight.
# For HE staining, sections were cut from paraffin blocks of liver tissue prefixed in Bouin's solution and stained with Lillie-Mayer's Hematoxylin (Muto Pure Chemicals, Japan) and eosin solution (Wako Pure Chemical Industries).
# [9] = high dose 3 mg/kg/day s.c. infusion 9-13 wks
# [10] = low dose 1 mg/kg/day s.c. infusion 9-13 wks
structure (smiles),measurement,setting,value
"C[C@H]1[C@H]2N(C(=O)CN(C)N2C(=O)NCc2ccccc2)[C@@H](Cc2ccc(OP(=O)(O)O)cc2)C(=O)N1Cc1cccc2cccnc12 [Compound A, 4-(((6S,9S,9aS)-1-(benzylcarbamoyl)-2,9-dimethyl-4,7-dioxo-8-(quinolin-8-ylmethyl)octahydro-1H-pyrazino[2,1-c][1,2,4]triazin-6-yl)methyl)phenyl dihydrogen phosphate]",Liver TG content,NASH mice [1]; [9],67.8 ± 24.0 mg/g
same,Liver TG content,NASH mice [1]; [10],64.8 ± 25.6 mg/g
same,Mean body weight at sacrifice,[2]; [9],23.7 ± 1.1 g
same,Mean body weight during the treatment period,[2]; high dose 3 mg/kg/day s.c. infusion,no significant differences
same,Mean body weight at sacrifice,[2]; [10],22.6 ± 2.6 g
same,Mean body weight during the treatment period,[2]; low dose 1 mg/kg/day s.c. infusion,no significant differences
same,General condition,"[2]; any of the animals (all groups), throughout the treatment period",No deterioration
same,Whole blood glucose (non-fasting),"NASH mice [3]; high dose 3 mg/kg/day s.c. infusion 9-13 wks, Vehicle 605±134, tended to increase",791 ± 54 mg/dL
same,Whole blood glucose (non-fasting),"NASH mice [3]; low dose 1 mg/kg/day s.c. infusion 9-13 wks, Vehicle 605±134, no significant difference",677 ± 36 mg/dL
same,Serum TG,"NASH mice [4]; high dose 3 mg/kg/day s.c. infusion 9-13 wks, Vehicle 391±175, increased",1145 ± 580 mg/dL
same,Serum TG,"NASH mice [4]; low dose 1 mg/kg/day s.c. infusion 9-13 wks, Vehicle 391±175, no significant difference",815 ± 754 mg/dL
same,Liver-to-body weight ratio,NASH mice [5]; [9],8.5±0.6%
same,Mean liver weight,NASH mice [5]; [9],2024 ± 159 mg
same,Liver-to-body weight ratio,NASH mice [5]; [10],8.0±0.8%
same,Mean liver weight,NASH mice [5]; [10],1803 ± 219 mg
same,"Collagen Type 3 mRNA expression level (relative, normalized to 36B4)","Collagen Type 3; high dose 3 mg/kg/day s.c. infusion 9-13 wks, n = 8, Vehicle 3.09 ± 1.51, tended to be down-regulated, 3 mg/kg/day",2.22±0.46
same,"Collagen Type 3 mRNA expression level (relative, normalized to 36B4)","Collagen Type 3; low dose 1 mg/kg/day s.c. infusion 9-13 wks, n = 8, Vehicle 3.09 ± 1.51, significantly down-regulated, 1 mg/kg/day",1.93±0.37
same,"TIMP-1 mRNA expression level (relative, normalized to 36B4)","TIMP-1; high dose 3 mg/kg/day s.c. infusion 9-13 wks, 3 mg/kg/day",6.73±2.23
same,"TIMP-1 mRNA expression level (relative, normalized to 36B4)","TIMP-1; low dose 1 mg/kg/day s.c. infusion 9-13 wks, 1 mg/kg/day",5.35±2.82
same,Serum ALT,NASH mice [6]; [9],49±17 U/L
same,Serum ALT,NASH mice [6]; [10],45±17 U/L
same,Sirius red-positive area (fibrosis area),"NASH mice [7]; high dose 3 mg/kg/day continuous s.c. infusion 9-13 wks, significantly decreased, 3 mg/kg/day",0.67±0.21%
same,Sirius red-positive area (fibrosis area),"NASH mice [7]; low dose 1 mg/kg/day continuous s.c. infusion 9-13 wks, no significant difference, 1 mg/kg/day",0.82±0.31%
same,Fibrosis (FIG. 1 legend),"NASH mice [7]; NASH rat model as printed in the legend, FIG. 1 shows high-dose 3 mg/kg/day versus Vehicle",reduces fibrosis
same,"HE-stained liver sections, difference from Vehicle group",NASH mice [8]; [9],No obvious difference
same,NAFLD Activity score (NAS),NASH mice [8]; [9],5.1±0.6
same,HE-stained liver sections: lobular inflammation,"NASH mice [8]; low dose 1 mg/kg/day s.c. infusion 9-13 wks, compared with the Vehicle group",improved
same,NAFLD Activity score (NAS),NASH mice [8]; [10],4.8±0.9

# Source: patent US20160263131A1, “TREATMENT OF HEPATIC FIBROSIS USING AN INHIBITOR OF CBP/CATENIN” (priority 2013, published 2016)
